Data from PubChem BioAssay (NCI).
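Tested at 5 concentrations; 48 h exposure; 96-well plates; endpoints linearly interpolated, else capped at highest concentration. GI50 marks 50% less growth. The concentration for full growth arrest is given as TGI.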

Key:
Experiment in all cases: growth of human tumour cells (NCI), 48 h
[1] = system: SR leukemia
[2] = system: NCI/ADR-RES ovarian
[3] = system: MALME-3M melanoma
[4] = system: 786-0 renal
[5] = system: UACC-257 melanoma
[6] = system: OVCAR-8 ovarian
[7] = system: HS 578T breast
[8] = system: M14 melanoma
[9] = system: LOX IMVI melanoma
[10] = system: CAKI-1 renal
[11] = system: EKVX NSCLC
[12] = system: NCI-H460 lung
[13] = system: SF-268 CNS
[14] = system: SK-OV-3 ovarian
[15] = system: A498 renal
[16] = system: SF-539 CNS
[17] = system: NCI-H226 lung
[18] = system: HOP-62 NSCLC
[19] = system: MDA-MB-231 breast
[20] = system: SF-295 CNS
[21] = system: COLO 205 colon
[22] = system: SK-MEL-5 melanoma
[23] = system: OVCAR-5 ovarian
[24] = system: A549 NSCLC
[25] = system: HCT-116 colon
[26] = system: UACC-62 melanoma
[27] = system: HOP-92 NSCLC
[28] = system: RPMI-8226 leukemia
[29] = system: DU-145 prostate
[30] = system: HCC-2998 colon
[31] = system: UO-31 renal
[32] = system: K-562 leukemia
[33] = system: U251 CNS
[34] = system: HL-60(TB) leukemia
[35] = system: OVCAR-3 ovarian
[36] = system: OVCAR-4 ovarian
[37] = system: SW-620 colon
[38] = system: SK-MEL-28 melanoma
[39] = system: PC-3 prostate
[40] = system: SNB-19 CNS
[41] = system: CCRF-CEM leukemia
[42] = system: HCT-15 colon
[43] = system: SN12C renal
[44] = system: KM12 colon
[45] = system: ACHN renal
[46] = system: SNB-75 CNS
[47] = system: NCI-H23 lung
[48] = system: MDA-MB-435
[49] = system: RXF 393 renal

Molecule O=S1(=O)C=C(c2ccccc2)C(c2ccccc2)=C1 has a GI50 [1] of 2.8 µM, a TGI [1] of 13.9 µM and a GI50 [2] of 2.73 µM. The TGI [2] was 9.31 µM, the GI50 [3] was 1.93 µM and the TGI [3] was 4.72 µM. The GI50 [4] was 1.49 µM, the TGI [4] was 2.82 µM and the GI50 [5] was 1.52 µM. For the same molecule, the TGI [5] was 2.96 µM, the GI50 [6] was 1.56 µM and the TGI [6] was 3.19 µM. It also gave a GI50 [7] of 1.18 µM, a TGI [7] of 3.5 µM and a GI50 [8] of 1.58 µM. For the same molecule, the TGI [8] was 3.01 µM, the GI50 [9] was 1.69 µM and the TGI [9] was 3.05 µM. The GI50 [10] was 1.16 µM, the TGI [10] was 2.63 µM and the GI50 [11] was 2.08 µM. The TGI [11] was 6.21 µM, the GI50 [12] was 1.88 µM and the TGI [12] was 4.23 µM. For the same molecule, the GI50 [13] was 1.49 µM, the TGI [13] was 3.38 µM and the GI50 [14] was 7.81 µM. The TGI [14] was 20.2 µM, the GI50 [15] was 1.47 µM and the TGI [15] was 3.25 µM. The GI50 [16] was 2.14 µM, the TGI [16] was 5.94 µM and the GI50 [17] was 1.68 µM. The TGI [17] was 3.34 µM, the GI50 [18] was 1.87 µM and the TGI [18] was 4.42 µM. For the same molecule, the GI50 [19] was 1.62 µM, the TGI [19] was 3.09 µM and the GI50 [20] was 2.06 µM. It also gave a TGI [20] of 6.3 µM, a GI50 [21] of 1.77 µM and a TGI [21] of 3.61 µM. It also gave a GI50 [22] of 1.57 µM, a TGI [22] of 2.9 µM and a GI50 [23] of 1.69 µM. For the same molecule, the TGI [23] was 3.14 µM, the GI50 [24] was 2.13 µM and the TGI [24] was 5.11 µM. For the same molecule, the GI50 [25] was 1.09 µM, the TGI [25] was 2.28 µM and the GI50 [26] was 1.73 µM. The TGI [26] was 3.64 µM, the GI50 [27] was 1.65 µM and the TGI [27] was 3.19 µM. The GI50 [28] was 3.3 µM, the TGI [28] was 7.92 µM and the GI50 [29] was 1.64 µM. It also gave a TGI [29] of 3 µM, a GI50 [30] of 1.71 µM and a TGI [30] of 3.16 µM. For the same molecule, the GI50 [31] was 1.15 µM, the TGI [31] was 2.6 µM and the GI50 [32] was 1.83 µM. For the same molecule, the TGI [32] was over 100 µM, the GI50 [33] was 1.54 µM and the TGI [33] was 2.88 µM. For the same molecule, the GI50 [34] was 2.14 µM, the TGI [34] was 5.21 µM and the GI50 [35] was 1.56 µM. For the same molecule, the TGI [35] was 2.9 µM, the GI50 [36] was 1.9 µM and the TGI [36] was 3.82 µM. For the same molecule, the GI50 [37] was 1.07 µM, the TGI [37] was 2.39 µM and the GI50 [38] was 1.77 µM. For the same molecule, the TGI [38] was 3.18 µM, the GI50 [39] was 1.79 µM and the TGI [39] was 4.52 µM. For the same molecule, the GI50 [40] was 1.98 µM, the TGI [40] was 4.63 µM and the GI50 [41] was 3 µM. It also gave a TGI [41] of 7.6 µM, a GI50 [42] of 1.53 µM and a TGI [42] of 3.15 µM. It also gave a GI50 [43] of 1.79 µM, a TGI [43] of 3.92 µM and a GI50 [44] of 1.63 µM. It also gave a TGI [44] of 3.2 µM, a GI50 [45] of 1.55 µM and a TGI [45] of 2.88 µM. The GI50 [46] was 1.33 µM, the TGI [46] was 2.6 µM and the GI50 [47] was 1.86 µM. For the same molecule, the TGI [47] was 3.93 µM, the GI50 [48] was 1.41 µM and the TGI [48] was 3.33 µM. For the same molecule, the GI50 [49] was 1.62 µM and the TGI [49] was 3 µM.
